Experimental findings from ChEMBL document CHEMBL1142999, “Discovery of potent, selective, orally active, nonpeptide inhibitors of human mast cell chymase” (J Med Chem, 2007) are described below.

The target of one data set is T1, Chymase (Homo sapiens) (UniProt P23946).
T1 sequence (whole entry): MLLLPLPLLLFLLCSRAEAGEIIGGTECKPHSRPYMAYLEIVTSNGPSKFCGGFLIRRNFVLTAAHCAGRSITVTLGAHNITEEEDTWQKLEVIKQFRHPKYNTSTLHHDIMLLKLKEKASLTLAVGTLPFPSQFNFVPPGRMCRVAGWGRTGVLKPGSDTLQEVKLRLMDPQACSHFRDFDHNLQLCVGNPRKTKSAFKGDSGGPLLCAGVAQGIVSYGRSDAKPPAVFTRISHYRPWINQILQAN
The experiment in a line: Inhibition of human skin chymase at 10 uM.

Data set [1] deals with T2, Cathepsin G (Homo sapiens) (UniProt P08311).
T2 sequence (whole entry): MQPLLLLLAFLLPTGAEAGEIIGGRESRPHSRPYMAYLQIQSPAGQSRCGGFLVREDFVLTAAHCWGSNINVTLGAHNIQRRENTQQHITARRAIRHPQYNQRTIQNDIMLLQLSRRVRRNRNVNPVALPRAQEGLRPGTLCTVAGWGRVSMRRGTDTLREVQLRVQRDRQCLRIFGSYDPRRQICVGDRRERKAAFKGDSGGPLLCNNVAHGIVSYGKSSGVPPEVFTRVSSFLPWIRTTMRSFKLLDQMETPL
The experiment in a line: Inhibition of human neutrophil Cat G at 100 uM.

Data set [2] can be described thus: Oral bioavailability in rat. It counts as ADME, organism-based. To be noted: in vivo.
The test system of data set [3] is Syrian golden hamster. The experiment in a line: Antiinflammatory activity against carrageenan-induced paw inflammation in golden Syrian hamster at 30 mg/kg, po. To be noted: Mesocricetus auratus. The data set is classed as functional. In general terms: In the carrageenan paw model, swelling and tenderness develop within hours.
The nature of data set [4]: Half life in orally dosed rat. The data set is classed as ADME, organism-based. To be noted: in vivo, po.
The nature of data set [5]: Cmax in rat. The data set is classed as ADME, organism-based. To be noted: in vivo.
Data set [6] is filed under the species Homo sapiens. The experiment in a line: Inhibition of human chymotrypsin at 100 uM.
Data set [7] concerns the target T3, Coagulation factor VII (Homo sapiens) (UniProt P08709).
T3 sequence (whole entry): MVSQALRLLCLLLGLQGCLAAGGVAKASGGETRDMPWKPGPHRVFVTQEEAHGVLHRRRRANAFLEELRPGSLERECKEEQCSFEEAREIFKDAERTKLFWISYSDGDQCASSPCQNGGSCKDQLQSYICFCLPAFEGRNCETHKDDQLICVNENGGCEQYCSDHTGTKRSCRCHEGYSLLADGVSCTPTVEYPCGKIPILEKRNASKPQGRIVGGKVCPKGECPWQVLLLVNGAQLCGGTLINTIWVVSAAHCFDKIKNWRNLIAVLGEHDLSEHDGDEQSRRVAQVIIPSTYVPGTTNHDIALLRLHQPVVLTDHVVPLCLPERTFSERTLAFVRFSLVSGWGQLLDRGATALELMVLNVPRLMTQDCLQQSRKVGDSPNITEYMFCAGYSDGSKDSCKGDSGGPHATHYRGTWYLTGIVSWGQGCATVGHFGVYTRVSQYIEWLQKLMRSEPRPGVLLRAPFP
The experiment in a line: Inhibition of human factor VIIa at 100 uM.

For data set [8], the species on record is Homo sapiens. Put plainly: Inhibition of human beta-tryptase at 100 uM.
For data set [9], the species on record is Homo sapiens. The experiment in a line: Inhibition of human alpha-thrombin at 100 uM.
Data set [10] concerns the target Coagulation factor X (Homo sapiens) (UniProt P00742). Put plainly: Inhibition of human factor Xa at 100 uM.
The target in another data set is T4, Cathepsin G (Homo sapiens, UniProt P08311).
T4 sequence (P08311 whole entry): T2 sequence (whole entry)
The experiment in a line: Inhibition of human neutrophil Cat G.

Data set [11] deals with T5, Neutrophil elastase (Homo sapiens) (UniProt P08246).
T5 sequence (whole entry): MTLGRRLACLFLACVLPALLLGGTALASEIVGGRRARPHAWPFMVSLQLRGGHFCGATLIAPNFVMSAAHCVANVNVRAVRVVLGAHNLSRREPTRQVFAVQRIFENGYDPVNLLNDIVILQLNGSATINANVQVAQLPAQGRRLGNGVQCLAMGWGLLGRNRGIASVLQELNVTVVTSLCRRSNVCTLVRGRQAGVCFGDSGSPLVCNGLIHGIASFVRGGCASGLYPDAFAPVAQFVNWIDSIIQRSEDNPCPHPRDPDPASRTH
The experiment in a line: Inhibition of human leukocyte elastase at 100 uM.

A further data set has as its target Trypsin (Homo sapiens, UniProt P07477+P07478+P35030). The experiment in a line: Inhibition of human trypsin. The data set is classed as protein assay.
Data set [12] relates to Syrian golden hamster. The experiment in a line: Antiinflammatory activity against carrageenan-induced paw inflammation in golden Syrian hamster at 10 mg/kg, im. It counts as functional, organism-based. Further details: dose 10 mg/kg. The conditions noted are these: Mesocricetus auratus.

Active and inactive are the calls of the source. The rule behind the calls is not given here.

Sequence of Coagulation factor X (Homo sapiens) (P00742 41-179 limits assumed): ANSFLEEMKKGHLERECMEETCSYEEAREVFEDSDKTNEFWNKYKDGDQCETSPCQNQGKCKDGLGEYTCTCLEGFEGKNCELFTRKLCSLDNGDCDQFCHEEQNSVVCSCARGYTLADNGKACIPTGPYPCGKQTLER
Sequence of Coagulation factor X (Homo sapiens) (P00742 235-488 limits assumed): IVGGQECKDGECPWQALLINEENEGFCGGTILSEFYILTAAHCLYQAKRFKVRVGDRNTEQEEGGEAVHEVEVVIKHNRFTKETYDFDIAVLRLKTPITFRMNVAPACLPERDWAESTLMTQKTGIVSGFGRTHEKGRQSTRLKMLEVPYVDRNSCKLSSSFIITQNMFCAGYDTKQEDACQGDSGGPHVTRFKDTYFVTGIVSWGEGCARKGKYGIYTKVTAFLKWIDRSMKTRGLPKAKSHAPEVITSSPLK

Broadly, the inhibition is the relative decrease from the control value, in per cent. As for `O=C(Nc1ccc2ccccc2c1)C(n1nnc2ccccc21)P(=O)(O)O` (configuration not stated), the inhibition at Chymase (Homo sapiens) was less than 50%.
In the case of `O=C(Nc1ccc2ccccc2c1)C(c1cccc2ccccc12)P(=O)(O)O` (configuration not stated), in data set [1], the inhibition was 0%.
One may read the bioavailability as dose-corrected exposure relative to a reference, in per cent. As a reminder, the inhibition in vivo is the percentage by which the read-out fell short of the control. As usually defined, the half-life is how long it takes for the measured level to halve. A higher half-life goes with slow decline. Usually Cmax stands for the peak of the concentration-time curve. The compound `CP(=O)(O)C(C(=O)N/C=C/c1cc(F)cc(Cl)c1)c1csc2ccc(Cl)cc12` (configuration not stated) registered a bioavailability in [2] of 39%. The inhibition in vivo at 30 mg/kg in the data set on Syrian golden hamster [3] is 50%. Moreover, in data set [4], the half-life is 4.5 h. In data set [5], this compound showed a maximum concentration (Cmax) of 6 µM.
By Ki is commonly meant a dissociation constant, usually derived from enzyme kinetics or from competition with a known ligand. Higher therefore signals lower affinity. For orientation: IC50 means the concentration at which inhibition is half-maximal. The low end stands for greater potency, the high end for weaker potency. Turning to `O=C(Nc1ccc2ccccc2c1)C(c1csc2ccc(Cl)cc12)P(=O)(O)O` (configuration not stated), the inhibition (in the data set listed under Homo sapiens [6]; in data set [7]; in the data set listed under Homo sapiens [8]; in the data set listed under Homo sapiens [9]; in [10]; in [11]) was less than 50% each time. In addition, the bioavailability in [2] came out at 3%. In [4], this compound showed a half-life of 1.8 h. In addition, the inhibition constant Ki at Cathepsin G turned out to be 9.5 µM. The half-inhibitory concentration (IC50) against Trypsin amounted to 12 µM.
In the case of `C[C@@H]1C[C@H]2[C@@H]3CCC4=CC(=O)C=C[C@]4(C)[C@@]3(F)[C@@H](O)C[C@]2(C)[C@@]1(O)C(=O)CO`, in the data set with Syrian golden hamster [12], the result was Active.
